According to patent US20250188040A1, “PHARMACEUTICAL COMPOSITIONS COMPRISING WRN HELICASE INHIBITORS” (Vividion Therapeutics, Inc., priority 2022, published 2025):

What was measured:
[1] = target: hWRN(519-1227)_C-H3CV-GFP-10His (Homo sapiens, UniProt Q14191); assay: Helicase Assay for WRN Inhibition (ATP-dependent, fluorescence based); settings: WRN Helicase IC50, 30 min preincubation with ATP, 30 min reaction
Protocol: Effects of compounds on WRN helicase activity were assessed with the Helicase Assay for WRN Inhibition. This is an ATP-dependent (inclusion of ATP is important and is required for this assay) fluorescence based assay using recombinant WRN and a fluorogenic DNA substrate.
WRN activity was normalized to signal from wells without WRN protein (background, 0% activity) and wells with protein treated only with DMSO (positive control, 10000 activity). For each compound the potency of inhibition (IC50) was determiined using Graphpad Prism.

SW480 cells = assay: Cell growth assay (CellTiter-Glo 2.0), SW480 MSS cell line; settings: Homo sapiens, SW480, 120 h, read-out: Cell Growth Inhibition GI50 SW480
Protocol: The effects of compound on cellular viability were determined using the CellTiter-Glo® 2.0 Luminescent Cell Viability Assay (Promega, Madison, WI).
SW480 cells were seeded at 1,000 cells per well in Eagle's Minimum Essential Medium (EMEM) with 10% FBS. Both cell lines were seeded in a volume of 50 μL medium per well. […] The concentration range was adjusted as needed for compounds of different potencies. The cells treated with compounds were incubated for 5 days at 37° C. in 5% CO2. […] The plate was then read on a Clariostar plate reader (BMG Labtech, Cary, NC) in luminescence mode. The previously measured baseline cell viability was subtracted from the luminescence value of each well, and cell viability (% of DMSO) was plotted as a function of log compound concentration. The EC50 was then calculated for each compound using Dotmatics Software (San Diego, CA).

WRN C727 = target: T1, WRN C727 (Homo sapiens, UniProt Q14191); assay: Target engagement, in vitro (lysate), OCI-AML2; format: binding; settings: read-out: OCI-AML2 WRN C727 TE50 in vitro (lysate)
T1 construct: endogenous in cells; host or cells: OCI-AML2
Method in brief: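 Percent engagement of WRN C727 is expressed against DMSO-treated samples, measured by PRM mass spectrometry of streptavidin-enriched, probe-tagged tryptic peptides. Compound dose responses preceded probe labelling of solvent-exposed cysteines, in either living OCI-AML2 cells or their lysates.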

HCT 116 cells = assay: Cell growth assay (CellTiter-Glo 2.0), HCT 116 MSI-H cell line; settings: Homo sapiens, HCT-116, 120 h, read-out: Cell Growth Inhibition GI50 HCT-116

T1 sequence (Q14191 whole entry): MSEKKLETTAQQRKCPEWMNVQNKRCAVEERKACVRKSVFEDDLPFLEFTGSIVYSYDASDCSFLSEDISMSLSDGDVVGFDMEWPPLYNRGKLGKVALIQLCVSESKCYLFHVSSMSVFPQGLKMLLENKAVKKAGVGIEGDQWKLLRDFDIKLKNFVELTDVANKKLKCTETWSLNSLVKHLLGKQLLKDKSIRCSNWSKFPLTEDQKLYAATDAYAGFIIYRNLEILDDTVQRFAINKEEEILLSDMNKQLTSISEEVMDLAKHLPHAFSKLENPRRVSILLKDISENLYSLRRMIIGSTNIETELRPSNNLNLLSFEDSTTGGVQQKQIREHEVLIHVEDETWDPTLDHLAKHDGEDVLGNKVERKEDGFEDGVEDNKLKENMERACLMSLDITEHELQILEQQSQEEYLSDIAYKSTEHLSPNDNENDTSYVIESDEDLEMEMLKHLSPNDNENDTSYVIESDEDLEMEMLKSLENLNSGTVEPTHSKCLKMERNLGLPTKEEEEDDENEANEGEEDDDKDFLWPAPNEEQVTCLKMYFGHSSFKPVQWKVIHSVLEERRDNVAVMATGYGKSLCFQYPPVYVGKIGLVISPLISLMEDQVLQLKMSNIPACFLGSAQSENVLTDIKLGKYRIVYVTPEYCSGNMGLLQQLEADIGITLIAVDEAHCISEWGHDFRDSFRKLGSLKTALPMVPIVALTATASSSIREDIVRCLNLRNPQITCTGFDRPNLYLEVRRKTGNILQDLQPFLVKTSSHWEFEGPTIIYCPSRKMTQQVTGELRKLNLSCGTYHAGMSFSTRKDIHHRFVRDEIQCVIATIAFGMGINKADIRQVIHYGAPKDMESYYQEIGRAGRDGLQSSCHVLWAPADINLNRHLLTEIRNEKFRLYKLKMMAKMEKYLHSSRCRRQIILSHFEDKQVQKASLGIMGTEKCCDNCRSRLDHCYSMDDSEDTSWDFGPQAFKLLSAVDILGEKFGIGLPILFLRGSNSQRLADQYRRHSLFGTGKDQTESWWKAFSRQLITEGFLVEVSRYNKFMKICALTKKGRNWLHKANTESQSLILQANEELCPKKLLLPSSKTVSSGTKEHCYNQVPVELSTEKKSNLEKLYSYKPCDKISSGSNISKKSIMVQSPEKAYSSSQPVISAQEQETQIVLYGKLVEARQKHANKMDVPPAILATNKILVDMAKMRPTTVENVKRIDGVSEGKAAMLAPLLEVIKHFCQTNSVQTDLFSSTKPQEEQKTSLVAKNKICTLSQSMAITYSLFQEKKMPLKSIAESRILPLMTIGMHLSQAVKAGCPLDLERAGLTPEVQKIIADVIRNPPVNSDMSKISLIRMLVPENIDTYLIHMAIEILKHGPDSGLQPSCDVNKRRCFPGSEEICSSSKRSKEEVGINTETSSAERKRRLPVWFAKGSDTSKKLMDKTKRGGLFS
Chain of hWRN(519-1227)_C-H3CV-GFP-10His (Q14191 519-1227): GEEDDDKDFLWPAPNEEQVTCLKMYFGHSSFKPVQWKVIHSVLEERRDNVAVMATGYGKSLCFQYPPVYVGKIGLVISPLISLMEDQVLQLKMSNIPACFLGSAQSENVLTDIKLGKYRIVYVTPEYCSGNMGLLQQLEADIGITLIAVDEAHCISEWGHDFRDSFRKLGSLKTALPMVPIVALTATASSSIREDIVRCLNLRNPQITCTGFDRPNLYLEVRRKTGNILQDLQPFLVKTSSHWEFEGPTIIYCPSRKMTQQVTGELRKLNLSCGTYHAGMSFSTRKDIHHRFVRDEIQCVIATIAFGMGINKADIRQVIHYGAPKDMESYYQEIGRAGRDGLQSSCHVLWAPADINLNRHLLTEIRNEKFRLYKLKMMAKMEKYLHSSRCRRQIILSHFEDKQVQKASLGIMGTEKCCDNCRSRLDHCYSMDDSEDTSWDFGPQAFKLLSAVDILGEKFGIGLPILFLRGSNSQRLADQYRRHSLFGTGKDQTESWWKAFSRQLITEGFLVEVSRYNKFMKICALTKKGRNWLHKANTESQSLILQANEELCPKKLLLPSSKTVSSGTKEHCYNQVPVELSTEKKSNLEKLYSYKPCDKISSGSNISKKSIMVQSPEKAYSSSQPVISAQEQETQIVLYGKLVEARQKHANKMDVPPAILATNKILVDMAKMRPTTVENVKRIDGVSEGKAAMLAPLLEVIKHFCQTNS

Row | SMILES | IC50 [1] [nM] | GI50 (SW480 cells) [µM] | IC50 (WRN C727) [nM] | GI50 (HCT 116 cells) [nM]
1 | CC(C)(C)c1ncc(C(=O)N[C@H](/C=C/S(C)(=O)=O)C2CCC2)c(Oc2ccccc2)n1 [Example 66, (S,E)-2-(tert-butyl)-N-(1-cyclobutyl-3-(methylsulfonyl)allyl)-4-phenoxypyrimidine-5-carboxamide] | 113 | 21.8 | 380 | 30.2
2 | CC(C)(C)c1ncc(C(=O)N[C@H](/C=C/S(C)(=O)=O)C2CC(F)(F)C2)c(Oc2ccccc2)n1 [Example 67, (S,E)-2-(tert-butyl)-N-(1-(3,3-difluorocyclobutyl)-3-(methylsulfonyl)allyl)-4-phenoxypyrimidine-5-carboxamide] | 140 | 9.78 | 500 | 43.9
3 | CSC[C@@H](/C=C/S(C)(=O)=O)NC(=O)c1cnc(C(C)(C)C)nc1Oc1ccccc1 [Example 68, (R,E)-2-(tert-butyl)-N-(4-(methylsulfonyl)-1-(methylthio)but-3-en-2-yl)-4-phenoxypyrimidine-5-carboxamide] | 180 | 31.4 | 1000 | 230
4 | CO[C@H](C)[C@@H](/C=C/S(C)(=O)=O)NC(=O)c1cnc(C(C)(C)C)nc1Oc1ccccc1 [Example 69, 2-(tert-butyl)-N-((3R,4R,E)-4-methoxy-1-(methylsulfonyl)pent-1-en-3-yl)-4-phenoxypyrimidine-5-carboxamide] | 3390 | 51.6 | 11000 | 1220
5 | CC(C)(C)c1ncc(C(=O)N[C@H](/C=C/S(C)(=O)=O)C2CCOCC2)c(Oc2ccccc2)n1 [Example 70, (S,E)-2-(tert-butyl)-N-(3-(methylsulfonyl)-1-(tetrahydro-2H-pyran-4-yl)allyl)-4-phenoxypyrimidine-5-carboxamide] | 240 | > 58.7 | 790 | 130
6 | CC(C)(C)c1ncc(C(=O)N[C@H](/C=C/S(C)(=O)=O)C2CCC(F)(F)CC2)c(Oc2ccccc2)n1 [Example 72, (S,E)-2-(tert-butyl)-N-(1-(4,4-difluorocyclohexyl)-3-(methylsulfonyl)allyl)-4-phenoxypyrimidine-5-carboxamide] | 160 | 45.2 | 600 | 46.7
7 | CC(C)(C)c1ncc(C(=O)N[C@H](/C=C/S(C)(=O)=O)CC(F)F)c(Oc2ccccc2)n1 [Example 73, (S,E)-2-(tert-butyl)-N-(5,5-difluoro-1-(methylsulfonyl)pent-1-en-3-yl)-4-phenoxypyrimidine-5-carboxamide] | 150 | 16 | 470 | 300
8 | CS(=O)(=O)/C=C/CNC(=O)c1cnc(C2CCCCC2)nc1Oc1ccccc1 [Example 76, (E)-2-cyclohexyl-N-(3-(methylsulfonyl)allyl)-4-phenoxypyrimidine-5-carboxamide] | 4900 | > 10 | 50000 | 3400
9 | C[C@@H](/C=C/S(C)(=O)=O)NC(=O)c1cnc(C2CCCO2)nc1Oc1ccccc1 (stereo partly drawn) [Example 78, N—((S,E)-4-(methylsulfonyl)but-3-en-2-yl)-4-phenoxy-2-(tetrahydrofuran-2-yl)pyrimidine-5-carboxamide] | 9330 | > 10 | 50000 | 2600
10 | CS(=O)(=O)/C=C/[C@@H](NC(=O)c1cnc(C(F)(F)F)nc1Oc1ccccc1)C1CC1 [Example 82, (S,E)-N-(1-cyclopropyl-3-(methylsulfonyl)allyl)-4-phenoxy-2-(trifluoromethyl)pyrimidine-5-carboxamide] | 550 | 20 | 700 | 280
11 | C[C@@H](/C=C/S(C)(=O)=O)NC(=O)c1cnc(C(F)(F)C(F)(F)F)nc1Oc1ccccc1 [Example 83, (S,E)-N-(4-(methylsulfonyl)but-3-en-2-yl)-2-(perfluoroethyl)-4-phenoxypyrimidine-5-carboxamide] | 238 | 19.1 | 380 | 202
12 | COC[C@@H](/C=C/S(C)(=O)=O)NC(=O)c1cnc(C(F)(F)C(F)(F)F)nc1Oc1ccccc1 [Example 85, (R,E)-N-(1-methoxy-4-(methylsulfonyl)but-3-en-2-yl)-2-(perfluoroethyl)-4-phenoxypyrimidine-5-carboxamide] | 120 | 11.5 | 220 | 48.4
13 | CN(C)C(=O)C[C@@H](/C=C/S(C)(=O)=O)NC(=O)c1cnc(C(C)(F)F)nc1Oc1ccccc1 [Example 92, (S,E)-2-(1,1-difluoroethyl)-N-(5-(dimethylamino)-1-(methylsulfonyl)-5-oxopent-1-en-3-yl)-4-phenoxypyrimidine-5-carboxamide] | 1100 | 43 | 10000 | 245
14 | CO[C@@H](C)[C@@H](/C=C/S(C)(=O)=O)NC(=O)c1cnc(C(C)(F)F)nc1Oc1ccccc1 [Example 93, 2-(1,1-difluoroethyl)-N-((3R,4S,E)-4-methoxy-1-(methylsulfonyl)pent-1-en-3-yl)-4-phenoxypyrimidine-5-carboxamide] | 460 | 87.5 | 4190 | 128
15 | CC(C)(C)OC[C@@H](/C=C/S(C)(=O)=O)NC(=O)c1cnc(C(C)(F)F)nc1Oc1ccccc1 [Example 96, (R,E)-N-(1-(tert-butoxy)-4-(methylsulfonyl)but-3-en-2-yl)-2-(1,1-difluoroethyl)-4-phenoxypyrimidine-5-carboxamide] | 200 | 27.5 | 400 | 36.9
16 | C[C@@H](/C=C/S(C)(=O)=O)NC(=O)c1cnc(C2(F)CC2)nc1Oc1ccccc1 [Example 99, (S,E)-2-(1-fluorocyclopropyl)-N-(4-(methylsulfonyl)but-3-en-2-yl)-4-phenoxypyrimidine-5-carboxamide] | 2000 | 40 | 10000 | 740
17 | C[C@@H](/C=C/S(C)(=O)=O)NC(=O)c1cnc(C2(C(F)(F)F)CC2)nc1Oc1ccccc1 [Example 101, (S,E)-N-(4-(methylsulfonyl)but-3-en-2-yl)-4-phenoxy-2-(1-(trifluoromethyl)cyclopropyl)pyrimidine-5-carboxamide] | 1100 | 7.86 | 6030 | 374
18 | C[C@@H](/C=C/S(C)(=O)=O)NC(=O)c1cnc(C2CC(F)(F)C2)nc1Oc1ccccc1 [Example 103, (S,E)-2-(3,3-difluorocyclobutyl)-N-(4-(methylsulfonyl)but-3-en-2-yl)-4-phenoxypyrimidine-5-carboxamide] | 1500 | 20.4 | 3430 | 359
19 | CS(=O)(=O)/C=C/CNC(=O)c1cnc(C2CCCC2)nc1Oc1ccc(F)cc1 [Example 112, (E)-2-cyclopentyl-4-(4-fluorophenoxy)-N-(3-(methylsulfonyl)allyl)pyrimidine-5-carboxamide] | 4600 | > 10 | 7430 | 4800
20 | C[C@@H](/C=C/S(C)(=O)=O)NC(=O)c1cnc(C2CCCC2)nc1Oc1ccc(F)cc1 [Example 113, (S,E)-2-cyclopentyl-4-(4-fluorophenoxy)-N-(4-(methylsulfonyl)but-3-en-2-yl)pyrimidine-5-carboxamide] | 1800 | 6.2 | 2330 | 1100
